Experimental data from patent US9302991B2, “Arylamide derivatives as TTX-S blockers” (RaQualia Pharma Inc., priority 2010, dated 2016).

These compounds were tested against T1, human Nav1.7 channels (Homo sapiens, UniProt Q15858) (assay: FRET assay, human Nav1.7 (EFS on FDSS)). Conditions: CHO cells expressing human Nav1.7, read-out: IC50 against Nav1.7.
T1 construct: expressed in transfected cells; host or cells: CHO
Type: cell-based
Summary of the method: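 IC50 was derived from normalized 440 nm fluorescence ratios of the EFS-evoked membrane-potential response read on FDSS. Recombinant CHO cells were sequentially dye-loaded with coumarin/oxonol FRET pair at room temperature in pH 7.4 buffer before compound addition.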

T1 sequence (Q15858 whole entry): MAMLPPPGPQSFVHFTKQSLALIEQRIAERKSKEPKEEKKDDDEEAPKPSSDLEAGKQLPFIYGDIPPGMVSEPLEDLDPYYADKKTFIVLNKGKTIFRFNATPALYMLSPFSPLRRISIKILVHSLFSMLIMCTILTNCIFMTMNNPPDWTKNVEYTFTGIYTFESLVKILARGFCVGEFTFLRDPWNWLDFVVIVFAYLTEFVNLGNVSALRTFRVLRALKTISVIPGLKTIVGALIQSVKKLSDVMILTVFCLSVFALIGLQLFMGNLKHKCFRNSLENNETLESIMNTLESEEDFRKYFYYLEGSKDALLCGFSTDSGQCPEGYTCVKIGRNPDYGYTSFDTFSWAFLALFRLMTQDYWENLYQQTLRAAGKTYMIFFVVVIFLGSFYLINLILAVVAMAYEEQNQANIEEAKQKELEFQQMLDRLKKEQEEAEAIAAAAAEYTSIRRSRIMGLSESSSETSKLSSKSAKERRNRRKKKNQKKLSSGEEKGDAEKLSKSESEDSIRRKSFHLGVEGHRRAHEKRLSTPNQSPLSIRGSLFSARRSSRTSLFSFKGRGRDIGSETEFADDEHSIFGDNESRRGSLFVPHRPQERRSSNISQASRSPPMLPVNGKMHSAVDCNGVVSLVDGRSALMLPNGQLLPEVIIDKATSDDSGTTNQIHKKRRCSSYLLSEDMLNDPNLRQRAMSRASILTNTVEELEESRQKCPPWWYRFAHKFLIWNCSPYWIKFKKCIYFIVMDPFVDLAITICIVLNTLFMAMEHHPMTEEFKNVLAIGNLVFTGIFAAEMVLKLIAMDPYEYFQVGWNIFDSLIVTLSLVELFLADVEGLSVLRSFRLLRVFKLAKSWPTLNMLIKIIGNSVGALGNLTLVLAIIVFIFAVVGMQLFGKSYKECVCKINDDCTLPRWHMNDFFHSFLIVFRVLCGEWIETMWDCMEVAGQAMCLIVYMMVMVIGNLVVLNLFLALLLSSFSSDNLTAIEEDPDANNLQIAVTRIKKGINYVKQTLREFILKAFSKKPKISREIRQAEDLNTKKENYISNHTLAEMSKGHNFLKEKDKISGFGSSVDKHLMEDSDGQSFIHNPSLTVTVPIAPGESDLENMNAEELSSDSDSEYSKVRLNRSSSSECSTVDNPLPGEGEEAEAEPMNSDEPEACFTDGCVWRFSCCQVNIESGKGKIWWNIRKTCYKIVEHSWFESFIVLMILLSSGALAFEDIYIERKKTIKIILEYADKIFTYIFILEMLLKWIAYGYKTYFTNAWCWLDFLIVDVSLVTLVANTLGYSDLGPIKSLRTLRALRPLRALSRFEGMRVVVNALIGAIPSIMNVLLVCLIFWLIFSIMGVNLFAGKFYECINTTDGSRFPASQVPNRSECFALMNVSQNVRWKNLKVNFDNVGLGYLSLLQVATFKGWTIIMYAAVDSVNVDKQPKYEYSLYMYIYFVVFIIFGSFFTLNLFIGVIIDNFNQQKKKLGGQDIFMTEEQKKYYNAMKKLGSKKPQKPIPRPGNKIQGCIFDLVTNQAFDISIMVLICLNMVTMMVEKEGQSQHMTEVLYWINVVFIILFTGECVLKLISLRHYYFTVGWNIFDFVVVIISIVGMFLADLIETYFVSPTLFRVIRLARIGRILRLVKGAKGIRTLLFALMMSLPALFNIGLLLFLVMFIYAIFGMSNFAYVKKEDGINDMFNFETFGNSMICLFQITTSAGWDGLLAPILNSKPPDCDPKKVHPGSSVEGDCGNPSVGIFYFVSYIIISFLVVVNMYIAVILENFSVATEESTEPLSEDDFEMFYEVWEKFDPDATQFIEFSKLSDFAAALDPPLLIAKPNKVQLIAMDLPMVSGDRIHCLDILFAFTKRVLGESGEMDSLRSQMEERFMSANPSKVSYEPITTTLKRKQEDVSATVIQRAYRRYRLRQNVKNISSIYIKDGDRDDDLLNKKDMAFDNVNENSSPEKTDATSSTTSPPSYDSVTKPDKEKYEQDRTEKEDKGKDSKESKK

IC50, < 1000 nM:
Cc1cc(C(=O)NCc2cnc(OCC(F)F)c(Cl)c2)cc(NC(=O)C2CC2)n1 [Example 826, N-((5-chloro-6-(2,2-difluoroethoxy)pyridin-3-yl)methyl)-2-(cyclopropanecarboxamido)-6-methylisonicotinamide]
CC(NC(=O)c1ccnc(NC(=O)C2CC2)c1)c1ccc(OCC(F)(F)C(F)F)nc1 (single isomer, unassigned) [Example 922, 2-(cyclopropanecarboxamido)-N-(1-(6-(2,2,3,3-tetrafluoropropoxy)pyridin-3-yl)ethyl)isonicotinamide]
CC(C)C(=O)Nc1cc(C(=O)NCc2ccc(O[C@H](C)C(F)(F)F)nc2)ccn1 (single isomer, unassigned) [Example 319]
Cc1cc(C(=O)NC(C)c2cccc(OCC(F)(F)F)c2)cc(NC(=O)C(C)C)n1 (single isomer, unassigned) [Example 881, 2-isobutyramido-6-methyl-N-(1-(3-(2,2,2-trifluoroethoxy)phenyl)ethyl)isonicotinamide]
Cc1cc(C(=O)NC(C)c2ccc(OCC(F)(F)C(F)F)nc2)cc(NC(=O)C2CC2)n1 (single isomer, unassigned) [Example 828]
CCCC(=O)Nc1cc(C(=O)NC(C)c2cnc(OCC(F)(F)C(F)F)c(C)c2)ccn1 (single isomer, unassigned) [Example 928, 2-butyramido-N-(1-(5-methyl-6-(2,2,3,3-tetrafluoropropoxy)pyridin-3-yl)ethyl)isonicotinamide]
C=CC(=O)Nc1cc(C(=O)NC(C)c2ccc(OCC(F)(F)F)nc2)cc(C)n1 (single isomer, unassigned) [Example 482, 2-acrylamido-6-methyl-N-(1-(6-(2,2,2-trifluoroethoxy)pyridin-3-yl)ethyl)isonicotinamide]
CCC(=O)Nc1cc(C(=O)NCc2cnc(OCC(F)F)c(Cl)c2)cc(C)n1 [Example 618, N-((5-chloro-6-(2,2-difluoroethoxy)pyridin-3-yl)methyl)-2-methyl-6-propionamidoisonicotinamide]
CC(=O)Nc1cc(C(=O)NCc2cnc(OCC(F)F)c(Cl)c2)cc(C)n1 [Example 706, 2-acetamido-N-((5-chloro-6-(2,2-difluoroethoxy)pyridin-3-yl)methyl)-6-methylisonicotinamide]
CCC(=O)Nc1cc(C(=O)NC(C)c2ccc(OCC(F)(F)F)nc2)cc(C)n1 (single isomer, unassigned) [Example 60, 2-methyl-6-propionamido-N-(1-(6-(2,2,2-trifluoroethoxy)pyridin-3-yl)ethyl)isonicotinamide]
CCc1cc(C(C)NC(=O)c2ccnc(NC(=O)C3CC3)n2)cnc1OCC(F)F (single isomer, unassigned) [Example 890, 2-(cyclopropanecarboxamido)-N-(1-(6-(2,2-difluoroethoxy)-5-ethylpyridin-3-yl)ethyl)pyrimidine-4-carboxamide]
CCC(=O)Nc1cc(C(=O)NC(C)c2ccc(OCCC(F)(F)F)nc2)cc(C)n1 (single isomer, unassigned) [Example 140, 2-methyl-6-propionamido-N-(1-(6-(3,3,3-trifluoropropoxy)pyridin-3-yl)ethyl)isonicotinamide]
COc1c(CNC(=O)c2cc(C)nc(NC(C)=O)c2)cccc1C(F)(F)F [Example 819, 2-acetamido-N-(2-methoxy-3-(trifluoromethyl)benzyl)-6-methylisonicotinamide]
CCOc1nc(OCC(F)(F)F)ccc1CNC(=O)c1ccnc(NC(C)=O)c1 [Example 332, 2-acetamido-N-((2-ethoxy-6-(2,2,2-trifluoroethoxy)pyridin-3-yl)methyl)isonicotinamide]
CC(=O)Nc1cc(C(=O)NC(C)c2cnc(OCC(F)F)c(C)c2)ccn1 (single isomer, unassigned) [Example 551, 2-acetamido-N-(1-(6-(2,2-difluoroethoxy)-5-methylpyridin-3-yl)ethyl)isonicotinamide]
CC(C)C(=O)Nc1cc(C(=O)NC(C)c2cnc(OCC(F)(F)F)c(F)c2)ccn1 (single isomer, unassigned) [Example 220, N-(1-(5-fluoro-6-(2,2,2-trifluoroethoxy)pyridin-3-yl)ethyl)-2-isobutyramidoisonicotinamide]
Cc1cc(C(=O)NCc2ccc(OCC(F)F)c(C)c2)nc(NC(=O)C2CC2)n1 [Example 996, 2-(cyclopropanecarboxamido)-N-(4-(2,2-difluoroethoxy)-3-methylbenzyl)-6-methylpyrimidine-4-carboxamide]
CC(=O)Nc1cc(C(=O)NCc2cnc(OCC(F)(F)F)cc2C)cc(C)n1 [Example 243, 2-acetamido-6-methyl-N-((4-methyl-6-(2,2,2-trifluoroethoxy)pyridin-3-yl)methyl)isonicotinamide]
CC(NC(=O)c1ccnc(NC(=O)C2CC2)c1)c1ccc(OCC(F)(F)F)cc1Cl (single isomer, unassigned) [Example 798, N-(1-(2-chloro-4-(2,2,2-trifluoroethoxy)phenyl)ethyl)-2-(cyclopropanecarboxamido)isonicotinamide]
CC(NC(=O)c1ccnc(NC(=O)C2CC2)n1)c1ccc(OCC(F)(F)F)cc1Cl (single isomer, unassigned) [Example 802, N-(1-(2-chloro-4-(2,2,2-trifluoroethoxy)phenyl)ethyl)-2-(cyclopropanecarboxamido)pyrimidine-4-carboxamide]
Cc1nc(OCC(F)(F)F)ccc1CNC(=O)c1ccnc(NC(=O)C2CC2)n1 [Example 407, 2-(cyclopropanecarboxamido)-N-((2-methyl-6-(2,2,2-trifluoroethoxy)pyridin-3-yl)methyl)pyrimidine-4-carboxamide]
Cc1cc(C(=O)NCc2cnc(OCC(F)(F)F)c(Cl)c2)nc(NC(=O)C2CC2)n1 [Example 1147, N-((5-chloro-6(2,2,2-trifluoroethoxy)pyridin-3-yl)methyl)-2-(cyclopropanecarboxamido)-6-methylpyrimidine-4-carboxamide]
Cc1cc(C(=O)NCc2ccc(OCC(F)F)c(Cl)c2)cc(NC(=O)C(C)C)n1 [Example 1003, N-(3-chloro-4-(2,2-difluoroethoxy)benzyl)-2-isobutyramido-6-methylisonicotinamide]
Cc1cc(C(=O)NCc2cnc(OCC(F)F)c(C)c2)cc(NC(=O)C2CC2)n1 [Example 851, 2-(cyclopropanecarboxamido)-N-((6-(2,2-difluoroethoxy)-5-methylpyridin-3-yl)methyl)-6-methylisonicotinamide]
CC(=O)Nc1cc(C(=O)NC(C)c2cnc(OCC(F)(F)F)c(C)c2)cc(C)n1 (single isomer, unassigned) [Example 379, 2-acetamido-6-methyl-N-(1-(5-methyl-6-(2,2,2-trifluoroethoxy)pyridin-3-yl)ethyl)isonicotinamide]
